Reference: US20120039850A1, “HCV Combination Therapies Comprising Pegylated Interferon, Ribavirin and Telaprevir” (Janssen Pharmaceutica NV, priority 2009, published 2012)
Like-named read-outs stand apart in the source and are kept apart here.

Tests used:
genotype 1 HCV = assay: PROVE 1 Phase 2b clinical trial: viral response (HCV RNA, Roche COBAS TaqMan assay); format: in vivo, human
Source text: Twenty percent of those treated with telaprevir were either Hispanic (10%) or African American (10%). In the control arm, 8% of patients were Hispanic and 12% were African American. […] On average, patients were 49 years old (21-63 years range) with a mean weight of 82.1 kg (46-136 kg range).
The Roche COBAS TaqMan® assay was used to measure HCV RNA (LOD 10 IU/mL). For viral kinetic modeling, values reported as <10 IU/mL were replaced with 5 IU/mL.
Severity of fibrosis was defined by histologic assessment from each center's local pathologist.
The Roche COBAS TaqMan® assay was used to measure HCV RNA (limit of detection 10 IU/mL). For viral kinetic modeling, values reported as <10 IU/mL were replaced with 5 IU/mL.

HCV genotype 1 = assay: Phase 1b trial (Study VX04-950-101); details: subjects infected with HCV genotype 1
[1] = in vivo
replicon = assay: Predicted human liver exposure relative to replicon assay IC50/IC90; details: dose range studied
[2] = test system: VX-950-resistant variants of HCV; assay: IC50 shift of VX-950-resistant variants
[3] = set-up: species or system human; details: in vivo

**Q.** For CCC[C@H](NC(=O)[C@@H]1[C@H]2CCC[C@H]2CN1C(=O)[C@@H](NC(=O)[C@@H](NC(=O)c1cnccn1)C1CCCCC1)C(C)(C)C)C(=O)C(=O)NC1CC1 [VX-950], which “% with SVR” value (genotype 1 HCV) is on record?
**A.** 62%

**Q.** What about the “% with SVR” value (genotype 1 HCV; AA (African American)) of the same compound?
**A.** 44%

**Q.** What about the “% with SVR” value (genotype 1 HCV; L (Latino)) of the same compound?
**A.** 65%

**Q.** And the antiviral activity (HCV genotype 1)?
**A.** substantial antiviral activity

**Q.** What about the oral bioavailability [1] of the same compound?
**A.** orally bioavailable

**Q.** And the “predicted average liver concentration, fold of the replicon assay IC90” value (replicon)?
**A.** up to 57 fold

**Q.** What about the “fold increase in IC50” value [2] of the same compound?
**A.** 7-20 fold

**Q.** What about the “pharmacokinetics among the different racial/ethnic groups” value [3] of the same compound?
**A.** No differences
